The text below walks through data of patent US5162366A, “Antioxidant composition in vivo comprising enol form δ-lactone of diketogulonic acid” (Nissan Chemical Industries, Ltd., priority 1990, dated 1992).

The conditions of data set [1]: intraperitoneal administration to female ddY mice in this test; cited from earlier work.
The nature of data set [2]: Stability in water. Format: physicochemical.
Data set [3] deals with ddY strain mice. Nature of the data set: Reducing toxicity of Adriamycin: survival days of mice. The settings on record: after Adriamycin; for prolongation of survival days: conclusion; for incidence of death versus control group: vitamin E 200 mg/kg i.p. 4 times or R-345 30 mg/kg i.p. 4 times. The format is in vivo, mouse (female ddY strain).
Data set [4] concerns liver. Nature of the data set: Reducing liver toxicity by organic halogen compounds (CCl4 :CHCl3). The format is in vivo, mouse (female ddY strain). As to conditions: for TBA value (lipid peroxide) in liver: Day 1 after CCl4 :CHCl3, FIG. 4a; for calcium content in liver: over 3 days after CCl4 :CHCl3, FIG. 4b. The protocol: In liquid paraffin were dissolved 0.0025 ml of carbon tetrachloride (CCl4) and 0.0050 ml of chloroform (CHCl3) to form 0.1 ml of a solution. The solution was intraperitoneally administered to female ddY strain mice of 4 week age having a mean body weight of 25 g. With passage of day, concentration of lipid peroxide (TBA value, by thiobarbituric acid reaction), calcium concentration and a ratio of saturated fatty acids to unsaturated fatty acids (as an index of fatty liver), in liver were measured over 3 days. […] Ascorbic acid (AsA) and R-345 (4 mg each was dissolved in 0.1 ml of physiological saline, respectively) were intraperitoneally administered once a day every day from 6 hours after CCl4 :CHCl3 was administered to the day before the mice were sacrificed.

Data set [5] in a line: Oxidation of the reducing agent by tert-butyl hydroperoxide (absorption intensity). Format: physicochemical. As to conditions: addition of tert-butyl hydroperoxide.
For data set [6], the system named is erythrocyte membrane. Nature of the data set: Inhibition of tert-butyl hydroperoxide-induced peroxidation of erythrocyte membrane (thiobarbituric acid). Format: biochemical, human. The settings on record: for amount of lipid peroxide / formation of peroxide: human red ghost, tert-butyl hydroperoxide, 37° C., 30 minutes, 535 nm (FIG. 1). From the text:
Human blood cells were subjected to hemolysis and red ghost (membrane segments containing hemoglobin) was collected by a centrifuging machine. […] The reaction product was quantitatively determined by colorimetry at 535 nm.

Data set [7] deals with ddY strain mice. Nature of the data set: Reducing radiation injury (X rays 800 roentgen): survival days of mice. The format is in vivo, mouse (female ddY strain). The settings on record: for mice survived longer than 30 days / mice survived on Day 15 / average number of survival days: X rays 800 roentgen, FIG. 3; for mice survived longer than 30 days: 20 mice, R-345 285 mg/kg i.v. and/or vitamin E 200 mg/kg i.m.; for mice survived on Day 15: R-345 285 mg/kg i.v. 3 times and/or vitamin E 200 mg/kg i.m. 3 times; for average number of survival days: survival longer than 30 days counted as 30 days, control 8.7 days. The protocol: Female ddY strain mice of 4 week age having a mean body weight of 25 g were exposed to X rays of 800 roentgen to examine the number of survival days (dose of LD50 for 30 days was 407 to 466 roentgen).
R-345 (285 mg/kg) was intravenously administered through the tail immediately before exposure to radiation, and on Days 1 and 3 (3 times in total). […] With respect to a mouse survived longer than 30 days, the number of survival days was counted as 30 days to determine the average number of survival days.
Vitamin E (200 mg/kg) was intramuscularly administered 3 days and 1 day before exposure to radiation, and immediately before the exposure (3 times in total).

The test system of data set [8] is ddY strain mice. Description: Recovery from hyperglycemia in Alloxan-induced diabetes. The format is in vivo, mouse (female ddY strain). As to conditions: one week after Alloxan 80 mg/kg i.v.; FIG. 5. The protocol: After Alloxan (80 mg/kg) was intravenously administered to female ddY strain mice of 4 week age showing a mean body weight of 25 g, 0.2 ml of vitamin E solution (dissolved in liquid paraffin in a concentration of 5%) was intramuscularly injected per mouse once a day from the next day and 0.2 ml of R-345 (dissolved in physiological saline in a concentration of 2 wt %) was intraperitoneally injected. In the control group, 0.2 ml of physiological saline was intraperitoneally injected per mouse. Blood sugar level was measured one week after administration of Alloxan.

Entries after “also recorded” stand apart in the source; their conditions may differ.

One may read the LD50 as the dose at which mortality reaches 50%. With `COc1cccc2c1C(=O)c1c(O)c3c(c(O)c1C2=O)C[C@@](O)(C(=O)CO)C[C@@H]3O[C@H]1C[C@H](N)[C@H](O)[C@H](C)O1` [Adriamycin], the LD50 in data set [1] was 14 mg/kg.
`O=C1OC(CO)C(=O)C(O)=C1O` (centres unmarked) [R-345, 2,3,6-trihydroxy-4-oxo-2-hexen-5-olide]: the “decomposition in water over a long period of time” value in data set [2] is recorded as “tends to be decomposed some or less”. Also, the “mice survived longer than 50 days” value in data set [3] (i.p., 10 mice, R-345 30 mg/kg and/or vitamin E 200 mg/kg, FIG. 2) amounted to 2 mice. In addition, the “mice died up to about Day 20” value in data set [3] (R-345 30 mg/kg i.p. 4 times, FIG. 2b) is reported as 8 out of 10. In data set [3], the “prolongation of survival days” value is “only a slight prolongation” and the “incidence of death versus control group” value is “a slight difference was observed”. For the same compound, in data set [4], the “TBA value (lipid peroxide) in liver” value is given as “almost the same as in the control group” and the “calcium content in liver” value is reported as “almost recovered to normal level”. Further, the “increase in TBA value, calcium content and increase in neutral fat versus control group or vitamin E alone” value in data set [4] (conclusion) was “reduced as compared to the control group or the group administered with vitamin E alone”. Also, in data set [5], the “oxidation by tert-butyl hydroperoxide” value is reported as “hardly oxidized” and the “reduction in absorption intensity at 345 nm” value was “slight”. Further, the “activity of alleviating erythrocyte membrane disturbance induced by a peroxidant, versus ascorbic acid” value in data set [6] (conclusion) is recorded as “more effective than ascorbic acid”. Besides, in data set [6], the “amount of lipid peroxide / formation of peroxide” value was “exhibited the activity of inhibiting the formation of peroxide”. Further, the “increase in average number of survival days compared with the control group” value in data set [7] (R-345 285 mg/kg i.v. 3 times) is “slight increase”. In data set [7], the “mice survived longer than 30 days” value is 2 mice, the “mice survived on Day 15” value is 3 out of 20 and the “average number of survival days” value stood at 12.9 days. In addition, the blood sugar level entry in data set [8] is “somewhat higher than normal level”.
Regarding `O=C1O[C@H]([C@@H](O)CO)C(O)=C1O` [ascorbic acid], in data set [4], the “TBA value (lipid peroxide) in liver” value is “particularly high TBA value was noted in some cases” and the “calcium content in liver” value is “not lowered to normal level”. The “TBA value (lipid peroxide) in liver” value in data set [4] (listed as AsA) is listed as “some were higher than in the group administered with physiological saline (control group)”. In addition, in data set [5], the “oxidation by tert-butyl hydroperoxide” value is given as “immediately oxidized” and the “reduction in absorption intensity at 265 nm” value is on record as “markedly reduced”. Further, the “amount of lipid peroxide / formation of peroxide” value in data set [6] is on record as “increased”.
As to vitamin E, in data set [3], the “prolongation of survival days” value is “only a slight prolongation” and the “incidence of death versus control group” value is reported as “almost the same incidence as noted with the control group”. In data set [3] (vitamin E 200 mg/kg i.p. 4 times, FIG. 2c), the “mice survived longer than 31 days” value is given as “None”. For the same compound, in data set [4] (CCl4 :CHCl3), the “prevention of increase in TBA value (lipid peroxide level)” value was “effect of preventing increase in TBA value (lipid peroxide level) was noted” and the “prevention of increase of calcium level” value was “not noted”. In addition, the “prevention of increase in TBA value (lipid peroxide level)” value in data set [4] (CCl4 :CHCl3, listed as VE) is on record as “effective for preventing the increase in TBA value; also recorded: prevented an increase in TBA value”. In addition, in data set [4] (Day 2 after CCl4 :CHCl3, FIG. 4c), the “recovery of ratio of saturated fatty acid to unsaturated fatty acid in liver” value was “recovery would be slower than in the group administered with no VE”. Besides, in data set [4] (Day 3 after CCl4 :CHCl3, conclusion), the “recovery to normal level of calcium content on Day 3” value is “a tendency to delay the recovery to normal level”. In addition, in data set [4], the “calcium content in liver” value is “not lowered to normal level”. The “amount of lipid peroxide / formation of peroxide” value in data set [6] is given as “exhibited the activity of inhibiting the formation of peroxide”. In data set [7], the “mice survived longer than 30 days” value is listed as 2 mice, the “mice survived on Day 15” value is 2 out of 20 and the “average number of survival days” value turned out to be 11.8 days. The blood sugar level entry in data set [8] is reported as “somewhat higher than normal level”.
